Measured values: patent US10889563B2, “Deoxyuridine triphosphatase inhibitors” (University of Southern California, priority 2013, dated 2021)
pIC50: −log10 of the molar value.

Tests used:
[1] = test system: NSCLC cells (H1299, A549, H358 and H460); assay: Colony formation assay, NSCLC cells; type: cell-based; settings: FUdR printed as One mol/L, vs vehicle-treated controls
Experimental: (§1) Colony forming assay showing the ability of colon (SW620, HCT 116), non-small cell lung (A549, H460, H1299 and H358) and breast (MCF7) cancer cells to survive and proliferate following transient 24 hour exposure to single agent PCI 1013, FUdR and combinations. Specifically, cells were seeded at densities between 50 and 100 cells/well in 24-well plates. Twenty-four hours later, cells were treated with increasing concentrations of PCI 10213, a fixed dose of FUdR and combinations of these. After 24 hours, drug was removed, cells were rinsed and allowed to outgrow for 10-14 days. At the conclusion of the outgrowth, cells were fixed in 60% ice cold methanol and stained with 0.1% crystal violet, scanned and counted. Data is presented as percentage of untreated controls (mean±SD). Fraction affected and combination indexes were calculated according to the method of Chou and Talalay where <1 is indicative of a synergistic drug interaction.
(§2) Subsequently, increasing concentrations of PCI 10213 were combined with a fixed dose of FUdR to evaluate the combined drug effect. In NSCLC cells, concentrations of PCI 10213 ranging from 3.1 μmol/L to 25 μmol/L were combined with 1 μmol/L FUdR. […] The effectiveness of this combination was pronounced in A549 and H460 cells where 12.5 and 25 μmol/L PCI 10213 combined with 1 μmol/L FUdR reduced cell viability by >95% compared to vehicle-treated controls.

[2] = test system: HCT116 cells; assay: Colony formation assay, HCT116; type: cell-based; settings: HCT116, 0.5 to 5 μmol/L (Example 23)
[3] = test system: HCT-8 colorectal cell line model; assay: Colony formation assay, HCT-8; type: cell-based; settings: HCT-8, 1 μmol/L
Experimental: as §1
Colony forming assays were subsequently performed to evaluate the effectiveness of additional PCI compounds alone and in combination with FUdR at reducing cancer cell viability in the HCT-8 colorectal cell line model. […] Subsequently, increasing concentrations of PCI compounds were combined with a fixed dose of 1 μmol/L FUdR to evaluate the combined drug effect.

[4] = test system: SW620 cells; assay: Colony formation assay, SW620; type: cell-based; settings: SW620; PCI 10213 3.1 to 50 μmol/L or FUdR 1 μmol/L alone
Experimental: as §1
(§3) In colorectal cancer cells, concentrations of PCI 10213 ranging from 3.1 μmol/L to 50 μmol/L were combined with 0.5 μmol/L FUdR in HCT116 cells and 1 μmol/L FUdR in SW620 cells.

[5] = test system: colorectal (HCT116), breast (MCF-7) and non-small cell lung (H1299, A549, H358 and H460) cell line models; assay: Colony formation assay, all cell lines evaluated; type: cell-based
Experimental: as §1, §2

[6] = test system: HCT116 cells; assay: Colony formation assay, HCT116; type: cell-based
Experimental: as §1, with “interaction. […]” for “interaction.”
as §3

[7] = test system: MCF-7 breast cancer cell line; assay: Colony formation assay, MCF-7; type: cell-based; settings: MCF-7, 0.5 μmol/L
Experimental: as §1, §2

[8] = test system: A549 cells; assay: Colony formation assay, A549; type: cell-based; settings: A549, 25 and 50 μmol/L single agent
Experimental: as §1, §2

[9] = test system: SW620 cells; assay: MTS growth inhibition assay, SW620
Experimental: (§4) The Cell Titer^96 AQueous MTS assay (Promega) was carried out according to the manufacturers guidelines. […] The combination effect was determined by the combination index (CI) method utilizing Calcusyn software (Biosoft, Ferguson, Mo.). Fraction affected (FA) was calculated from the percent growth inhibition: FA=(100−% growth inhibition)/100. CI values <1, synergism; 1-1.2, additive and >1.2, antagonism.
HCT116 and SW620 cells were exposed to increasing concentrations of each agent for 72 hours and growth inhibition was directly compared to vehicle-treated controls.

[10] = test system: H1299 cells; assay: MTS growth inhibition assay, H1299; settings: H1299, 72 hours, 100 μmol/L single agent
Experimental: as §4
(§5) The NSCLC cell lines A549 and H1299 were exposed to increasing concentrations of each agent for 72 hours and growth inhibition was directly compared to vehicle-treated controls.

[11] = test system: HCT116 cells; assay: cells; settings: Homo sapiens, HCT-116, read-out: growth inhibition as a single agent
[12] = test system: HCT116 cells
[13] = test system: A549 cells; assay: MTS growth inhibition assay, A549; settings: A549, 72 hours
Experimental: as §4, §5

[14] = target: T1, Recombinant human deoxyuridine nucleotidohydrolase (dUTPase) (Homo sapiens, UniProt P33316); assay: Fluorescence-based dUTPase inhibition assay (Example 19; 5 ng dUTPase, 8 min at 37° C.)
T1 sequence (P33316 1-164 isoform P33316-2): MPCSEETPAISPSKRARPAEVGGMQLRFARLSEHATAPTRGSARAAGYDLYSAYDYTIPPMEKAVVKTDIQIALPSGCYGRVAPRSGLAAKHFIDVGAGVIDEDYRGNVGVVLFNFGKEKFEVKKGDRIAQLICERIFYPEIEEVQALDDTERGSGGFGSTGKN
Description: All drugs stocks were aliquoted and diluted as appropriate prior to use. The oligonucelotide primer, templates and fluorophore- and quencher-labeled detection probes are synthesized by Integrated DNA Technologies (Coralville, Iowa), subjected to polyacrylamide gel electrophoresis purification and reconstituted in Omnipur sterile nuclease-free water (EMD Chemicals USA, Gibbstown N.J.) at a stock concentration of 100 μmol/L. The two non-emissive (dark) quenching molecules incorporated into the detection probes include the Iowa black fluorescein quencher (IBFQ; absorption max 531 nm) and ZEN (non-abbreviation; absorption max 532 nm). The fluorescent label utilized was 6-FAM (5′-carboxyfluorescein; excitation max.=494 nm, emission max.=520 nm). Probes were further diluted to a working stock of 10 μmol/L and aliquoted to avoid repeated freeze/thaw cycles. AmpliTaq Gold DNA Polymerase, GeneAmp 10×PCR Buffer 2, MgCl2 and MicroAmp Optical 96-well Reaction Plates were purchased from Applied Biosystems (Carlsbad, Calif.). dNTPs were purchased individually at stock concentrations of 100 mmol/L from New England Biolabs at HPLC-certified >99% purity (Ipswich, Mass.).
Reaction mixtures contained primer, probe and template at an equimolar final concentration of 0.4 μmol/L. Magnesium chloride (MgCl2) was included at a final concentration of 2 mmol/L. Non-limiting dNTPs were included in the reaction mix in excess at a final concentration of 100 μmol/L (dUTP/dTTP was excluded). AmpliTaq Gold DNA polymerase was added at 0.875 U/reaction, 2.5 μl of 10×PCR buffer 2 added and nuclease-free ddH2O added to a final reaction volume of 25 μl. For dUTP inhibition analysis, the volume of ddH2O was further modified to accommodate an additional 1 μl of dUTPase (10 ng/μl) and 1 μl of inhibitor or DMSO control. Thermal profiling and fluorescence detection was performed using the ‘isothermal’ program on board an Applied Biosystems 7500 Real-Time PCR System. For analysis of dNTPs, the thermal profile consisted of an 8 min 37° C. step followed by a 10 min 95° C. step to ‘hot-start’ the Taq polymerase and a primer extension time of up to 30 min at 60° C. depending on the application. Raw fluorescence spectra for 6-FAM was measured using filter A at specified time intervals to follow assay progression using Sequence Detection Software (SDS Version 1.4, Applied Biosystems) and exported and analyzed in Microsoft Excel (Microsoft, Redmond Wash.) and Prism (GraphPad Software, La Jolla Calif.). In all cases, fluorescence values for blank reactions (limiting dNTP omitted) were subtracted to give normalized fluorescence units (NFU) to account for background fluorescence.
The assay employs a DNA polymerase-based approach utilizing an oligonucleotide template with 3 distinct regions: a 3′ primer binding region, a mid-template dUTP/thymidine triphosphate (TTP) detection region and a 5′ 6-Flavin adenine mononucleotide (FAM)-labeled probe binding region that incorporates a black hole quenching moiety.
reaction, the probe and primer hybridize to the oligonucleotide template to form the template:primer:probe complex. When Taq polymerase binds to the primer in the TPP complex and dUTP is present, successful extension of the nascent strand occurs and the inherent 5′ to 3′ exonuclease activity of Taq polymerase cleaves and displaces the 6-FAM-labeled probe in a 5′ to 3′ direction, releasing the 6-FAM fluorophore from its proximity to the three quenchers.

[15] = test system: H460 cells; assay: Colony formation assay, H460; type: cell-based; settings: H460, 25 and 50 μmol/L single agent
Experimental: as §1, §2

SMILES: O=c1[nH]c(=O)n([C@H]2C[C@H](O)[C@@H](CO)O2)cc1F [FUdR, fluorodeoxyuridine, reference compound]
- number of colonies formed, FUdR alone [1]: no significant effect on number of colonies formed
- colonies formed, FUdR alone [2]: dose-dependent decreases in colonies formed
- colonies formed, FUdR alone [3]: no substantial effect on colonies formed
- number of colonies formed, single agent [4]: neither PCI 10213 or the fixed dose of FUdR single agent had any significant effect on the number of colonies formed
- colonies formed, FUdR alone ([5]; all cell lines evaluated, 0.5 to 2.5 μmol/L): dose-dependent decreases in colonies formed
- number of colonies formed, FUdR alone ([6]; HCT116, 0.5 μmol/L, vs vehicle-treated controls (Example 23)): no significant effect on number of colonies formed
- number of colonies formed, single agent ([6]; HCT116, PCI 10213 3.1 to 50 μmol/L or FUdR 0.5 μmol/L alone): neither PCI 10213 or the fixed dose of FUdR single agent had any significant effect on the number of colonies formed
- number of colonies formed, FUdR alone [7]: no significant impact on the number of colonies formed

SMILES: C[C@@H](NS(=O)(=O)CC/C=C/Cn1ccc(=O)[nH]c1=O)c1cccc(OCC2CC2)c1 [PCI 10216, reference compound]
- number of colonies formed, compound alone [8]: some reduction in the number of colonies formed
- growth inhibition as a single agent ([9]; SW620, 25 μmol/L single agent): 30%
- single agent activity / decrease in proliferation ([9]; SW620, 72 hours, 100 μmol/L single agent): 70%
- combined effect with 5-FU on growth inhibition ([9]; SW620, fixed 25 μmol/L compound plus increasing 5-FU, up to 25 μmol/L 5-FU): additive and synergistic increases in growth inhibition
- decrease in cell proliferation [10]: 30%
- inhibition at 25 µM [11]: 44%
- decrease in growth / reduction in proliferation ([12]; HCT116, 72 hours, 100 μmol/L single agent): 67%
- lowest concentration with detectable decrease in cell proliferation ([12]; HCT116, 72 hours, single agent): 6.25 µmol/L
- combined effect with 5-FU on growth inhibition ([12]; HCT116, fixed 25 μmol/L compound plus increasing 5-FU, up to 25 μmol/L 5-FU): additive and synergistic increases in growth inhibition
- combined drug effect with fixed doses of FUdR ([5]; all cell lines examined (Example 22)): strong synergy
- reduction in proliferation ([13]; 75 μmol/L single agent): 30%
- decrease in growth / reduction in proliferation ([13]; 100 μmol/L single agent): 55%
- pIC50 [14]: 6.10
- % Inhibition ([14]; 1.3 umol/L compound): 60.4%
- inhibition at 1.3 µM ([14]; 1.3 umol/L compound): 60%
- inhibition at 2.6 µM ([14]; 2.6 umol/L compound): 76.6%
- inhibition at 5.2 µM ([14]; 5.2 umol/L compound): 84.6%
- inhibition at 10.4 µM ([14]; 10.4 umol/L compound): 95.9%
- inhibition at 20.8 µM ([14]; 20.8 umol/L compound): 101%
- inhibition at 41.7 µM ([14]; 41.7 umol/L compound): 97.2%
- % Inhibition ([14]; 83.3 umol/L compound): 95.4%
- inhibition at 83.3 µM ([14]; 83.3 umol/L compound): 95%
- number of colonies formed, compound alone ([6]; HCT116, 25 and 50 μmol/L single agent): some reduction in the number of colonies formed
- number of colonies formed, compound alone [15]: some reduction in the number of colonies formed
